Measurements: US20260152487A1 (Sitryx Therapeutics Limited, priority 2021, published 2026)

Molecular target: T1, recombinant human PKM2 (Homo sapiens, UniProt P14618)
T1 construct: His (N); purchased R&D Systems
Test: Human PKM2 activation assay (Kinase-Glo Plus luminescent detection of generated ATP)
Format: biochemical
Details: for Emax: percentage activation normalised to DMSO vehicle (LOW) and 5 μM TEPP-46 (HIGH), read-out: hPKM2 Emax; for EC50: recombinant human PKM2 activation, 4-parameter logistic fit, read-out: hPKM2 EC50
Summary of the method: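 Luminescent ATP detection (Kinase-Glo Plus, 15 min, 26 °C) followed a 60 min, 26 °C shaken reaction of compound with […] His-tagged human PKM2, PEP and ADP in imidazole/KCl/MgCl2 buffer with Tween20 and BSA, pH 7.2.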

T1 sequence (P14618 2-531 limits assumed): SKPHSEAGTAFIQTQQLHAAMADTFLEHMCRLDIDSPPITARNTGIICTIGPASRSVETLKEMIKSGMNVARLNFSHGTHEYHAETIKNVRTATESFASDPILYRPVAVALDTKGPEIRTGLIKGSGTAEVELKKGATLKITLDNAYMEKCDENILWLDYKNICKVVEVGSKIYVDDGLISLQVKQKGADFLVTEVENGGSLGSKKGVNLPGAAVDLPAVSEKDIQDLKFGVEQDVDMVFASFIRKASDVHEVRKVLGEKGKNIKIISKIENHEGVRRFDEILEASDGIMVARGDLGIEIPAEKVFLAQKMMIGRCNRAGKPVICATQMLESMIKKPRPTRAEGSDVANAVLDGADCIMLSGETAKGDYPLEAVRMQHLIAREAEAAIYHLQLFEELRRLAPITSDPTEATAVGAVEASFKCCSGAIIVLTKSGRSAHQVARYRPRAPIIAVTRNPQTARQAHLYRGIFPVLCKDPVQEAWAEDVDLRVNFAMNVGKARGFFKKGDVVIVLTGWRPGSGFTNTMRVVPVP

SMILES | Emax | EC50
Cn1ccc(Cn2ncc3cc(S(=O)(=O)c4ccccc4)cnc3c2=O)n1 [Example 250, 7-((1-methyl-1H-pyrazol-3-yl)methyl)-3-(phenylsulfonyl)pyrido[2,3-d]pyridazin-8(7H)-one] | 92.4% | 398 nM
O=c1c2ccc(S(=O)(=O)c3ccncc3)cc2cnn1Cc1cc[nH]n1 [Example 254, 2-((1H-pyrazol-3-yl)methyl)-6-(pyridin-4-ylsulfonyl)phthalazin-1(2H)-one] | 107% | 498 nM
COc1ccc(S(=O)(=O)c2ccc3c(=O)n(Cc4c(O)ccnc4O)ncc3c2)cc1 [Example 255, 2-((2,4-dihydroxypyridin-3-yl)methyl)-6-(4-methoxyphenylsulfonyl)phthalazin-1(2H)-one] | 104% | 155 nM
COc1ccc(S(=O)(=O)c2ccc3c(=O)n(Cc4cc[nH]n4)ncc3c2)nc1 [Example 257, 2-((1H-pyrazol-3-yl)methyl)-6-((5-methoxypyridin-2-yl)sulfonyl)phthalazin-1(2H)-one] | 99.3% | 161 nM
O=c1c2ccc(S(=O)(=O)c3cnccn3)cc2cnn1Cc1cc[nH]n1 [Example 260, 2-((1H-pyrazol-3-yl)methyl)-6-(pyrazin-2-ylsulfonyl)phthalazin-1(2H)-one] | 113% | 469 nM
O=c1c2ccc(S(=O)(=O)c3ccccc3)cc2cnn1Cc1cnc2ccccn12 [Example 261, 2-(imidazo[1,2-a]pyridin-3-ylmethyl)-6-(phenylsulfonyl)phthalazin-1(2H)-one] | 68% | 216 nM
Cn1ccc(Cn2ncc3cc(S(=N)(=O)c4ccccc4)ccc3c2=O)n1 (stereo not shown) [Example 262, 2-((1-methyl-1H-pyrazol-3-yl)methyl)-6-(phenylsulfonimidoyl)phthalazin-1(2H)-one] | 110% | 647 nM
O=c1c2cc(NCCO)c(S(=O)(=O)c3ccccc3)cc2cnn1Cc1cc[nH]n1 [Example 263, 2-((1H-pyrazol-3-yl)methyl)-7-((2-hydroxyethyl)amino)-6-(phenylsulfonyl)phthalazin-1(2H)-one] | 98% | 172 nM
Cn1ccc(Cn2ncc3cc(S(=O)(=O)c4cnn(CCO)c4)ccc3c2=O)n1 [Example 264, 6-((1-(2-hydroxyethyl)-1H-pyrazol-4-yl)sulfonyl)-2-((1-methyl-1H-pyrazol-3-yl)methyl)phthalazin-1(2H)-one] | 94.6% | 204 nM
Cn1cc(S(=O)(=O)c2cc3cnn(Cc4cc[nH]n4)c(=O)c3cn2)cn1 [Example 266, 3-((1H-pyrazol-3-yl)methyl)-7-((1-methyl-1H-pyrazol-4-yl)sulfonyl)pyrido[3,4-d]pyridazin-4(3H)-one] | 92.3% | 191 nM
Cn1cc(S(=O)(=O)c2cnc3c(=O)n(Cc4cc[nH]n4)ncc3c2)cn1 [Example 267, 7-((1H-pyrazol-3-yl)methyl)-3-((1-methyl-1H-pyrazol-4-yl)sulfonyl)pyrido[2,3-d]pyridazin-8(7H)-one] | 83.5% | 481 nM
Cn1cc(S(=O)(=O)c2cc3cnn(Cc4cc[nH]n4)c(=O)c3cc2NCCO)cn1 [Example 268, 2-((1H-pyrazol-3-yl)methyl)-7-((2-hydroxyethyl)amino)-6-((1-methyl-1H-pyrazol-4-yl)sulfonyl)phthalazin-1(2H)-one] | 102% | 352 nM
Cc1cccc(Cn2ncc3cc(S(=O)(=O)c4cnn(CCO)c4)ccc3c2=O)n1 [Example 269] | 103% | 129 nM
O=c1c2ccc(S(=O)(=O)c3ccccc3)cc2cnn1Cc1ccn(C2COC2)n1 [Example 273, 2-((1-(oxetan-3-yl)-1H-pyrazol-3-yl)methyl)-6-(phenylsulfonyl)phthalazin-1(2H)-one] | 112% | 457 nM
CC(O)c1cccc(Cn2ncc3cc(S(=O)(=O)c4cnn(C)c4)ccc3c2=O)n1 (stereo not shown) [Example 274, 2-((6-(1-hydroxyethyl)pyridin-2-yl)methyl)-6-((1-methyl-1H-pyrazol-4-yl)sulfonyl)phthalazin-1(2H)-one] | 93% | 350 nM
Cc1cccc(Cn2ncc3cc(S(=O)(=O)c4cnn(C5CNC5)c4)ccc3c2=O)n1 [Example 276, 6-((1-(azetidin-3-yl)-1H-pyrazol-4-yl)sulfonyl)-2-((6-methylpyridin-2-yl)methyl)phthalazin-1(2H)-one] | 102% | 518 nM
Cc1cccc(Cn2ncc3cc(S(=O)(=O)c4cnn(CCN)c4)ccc3c2=O)n1 [Example 277, 6-((1-(2-aminoethyl)-1H-pyrazol-4-yl)sulfonyl)-2-((6-methylpyridin-2-yl)methyl)phthalazin-1(2H)-one] | 105% | 304 nM
COc1ccc(Cn2ncc3cc(S(=O)(=O)c4ccn(CCO)n4)ccc3c2=O)cn1 [Example 280, 6-((1-(2-hydroxyethyl)-1H-pyrazol-3-yl)sulfonyl)-2-((6-methoxypyridin-3-yl)methyl)phthalazin-1(2H)-one] | 89.2% | 120 nM
COCCn1cc(S(=O)(=O)c2ccc3c(=O)n(Cc4cc[nH]n4)ncc3c2)cn1 [Example 281, 2-((1H-pyrazol-3-yl)methyl)-6-((1-(2-methoxyethyl)-1H-pyrazol-4-yl)sulfonyl)phthalazin-1(2H)-one] | 113% | 382 nM

Now from value to molecule:

Emax | EC50 | SMILES
109% | 155 nM | Cc1cccc(Cn2ncc3cc(S(=O)(=O)c4csc(C(C)O)n4)ccc3c2=O)n1 (stereo not shown) [Example 282, 6-((2-(1-hydroxyethyl)thiazol-4-yl)sulfonyl)-2-((6-methylpyridin-2-yl)methyl)phthalazin-1(2H)-one]
78.6% | 441 nM | Cn1cc(S(=O)(=O)c2ccc3c(=O)n(Cc4cccc(C5(O)COC5)n4)ncc3c2)cn1 [Example 283, 2-((6-(3-hydroxyoxetan-3-yl)pyridin-2-yl)methyl)-6-((1-methyl-1H-pyrazol-4-yl)sulfonyl)phthalazin-1(2H)-one]
72.7% | 452 nM | COc1ncccc1Cn1ncc2cc(S(=O)(=O)c3cn[nH]c3)ccc2c1=O [Example 284, 6-((1H-pyrazol-4-yl)sulfonyl)-2-((2-methoxypyridin-3-yl)methyl)phthalazin-1(2H)-one]
98.4% | 217 nM | COc1ccc(S(=O)(=O)c2ccc3c(=O)n(Cc4ccn(CCO)n4)ncc3c2)cn1 [Example 285, 2-((1-(2-hydroxyethyl)-1H-pyrazol-3-yl)methyl)-6-((6-methoxypyridin-3-yl)sulfonyl)phthalazin-1(2H)-one]
105% | 246 nM | COc1cccc(S(=O)(=O)c2ccc3c(=O)n(Cc4cc[nH]n4)ncc3c2)n1 [Example 286, 2-((1H-pyrazol-3-yl)methyl)-6-((6-methoxypyridin-2-yl)sulfonyl)phthalazin-1(2H)-one]
93.9% | 187 nM | Cc1cccc(S(=O)(=O)c2ccc3c(=O)n(Cc4cc[nH]n4)ncc3c2)n1 [Example 288, 2-((1H-pyrazol-3-yl)methyl)-6-((6-methylpyridin-2-yl)sulfonyl)phthalazin-1(2H)-one]
91.8% | 319 nM | Cc1ccc(S(=O)(=O)c2ccc3c(=O)n(Cc4cc[nH]n4)ncc3c2)nc1 [Example 289, 2-((1H-pyrazol-3-yl)methyl)-6-((5-methylpyridin-2-yl)sulfonyl)phthalazin-1(2H)-one]
106% | 594 nM | Cc1ccc(S(=O)(=O)c2ccc3c(=O)n(Cc4cc[nH]n4)ncc3c2)cn1 [Example 290, 2-((1H-pyrazol-3-yl)methyl)-6-((6-methylpyridin-3-yl)sulfonyl)phthalazin-1(2H)-one]
82.8% | 988 nM | COc1ccc(Cn2ncc3cc(S(=O)(=O)c4cn[nH]c4)ccc3c2=O)nc1C [Example 291, 6-(1H-pyrazol-4-ylsulfonyl)-2-((5-methoxy-6-methylpyridin-2-yl)methyl)phthalazin-1(2H)-one]
86.6% | 285 nM | COc1ccc(S(=O)(=O)c2ccc3c(=O)n(Cc4ccn(CCO)n4)ncc3c2)nc1 [Example 292, 2-((1-(2-hydroxyethyl)-1H-pyrazol-3-yl)methyl)-6-((5-methoxypyridin-2-yl)sulfonyl)phthalazin-1(2H)-one]
67.5% | 858 nM | O=c1c2ccc(S(=O)(=O)c3cn[nH]c3)cc2cnn1Cc1cnc2c(c1)CCO2 [Example 293, 6-(1H-pyrazol-4-ylsulfonyl)-2-((2,3-dihydrofuro[2,3-b]pyridin-5-yl)methyl)phthalazin-1(2H)-one]
104% | 150 nM | COc1cccc(Cn2ncc3cc(S(=O)(=O)c4cn[nH]c4)ccc3c2=O)n1 [Example 294, 6-((1H-pyrazol-4-yl)sulfonyl)-2-((6-methoxypyridin-2-yl)methyl)phthalazin-1(2H)-one]
104% | 456 nM | Cc1ccc(Cn2ncc3cc(S(=O)(=O)c4cn[nH]c4)ccc3c2=O)cn1 [Example 295, 6-((1H-pyrazol-4-yl)sulfonyl)-2-((6-methylpyridin-3-yl)methyl)phthalazin-1(2H)-one]
104% | 31.2 nM | O=c1c2ccc(S(=O)(=O)c3cc[nH]n3)cc2cnn1Cc1ccc2c(n1)CCO2 [Example 299, 6-((1H-pyrazol-3-yl)sulfonyl)-2-((2,3-dihydrofuro[3,2-b]pyridin-5-yl)methyl)phthalazin-1(2H)-one]
93.2% | 99 nM | Cc1cc(Cn2ncc3cc(S(=O)(=O)c4cn[nH]c4)ncc3c2=O)n[nH]1 [Example 300, 7-((1H-pyrazol-4-yl)sulfonyl)-3-((5-methyl-1H-pyrazol-3-yl)methyl)pyrido[3,4-d]pyridazin-4(3H)-one]
119% | 131 nM | Cc1ccc(F)c(Cn2ncc3cc(S(=O)(=O)c4cc[nH]n4)ccc3c2=O)n1 [Example 301]
